Results as given in BindingDB's records for doi:10.1021/bi5004519 (University of Pennsylvania, 2014).

How the values were obtained:
Arginase [1] = biological target: T1, Arginase (Schistosoma mansoni, UniProt Q6WVP6); assay: ITC; settings: pH 8.5
T1 sequence (Q6WVP6 whole entry): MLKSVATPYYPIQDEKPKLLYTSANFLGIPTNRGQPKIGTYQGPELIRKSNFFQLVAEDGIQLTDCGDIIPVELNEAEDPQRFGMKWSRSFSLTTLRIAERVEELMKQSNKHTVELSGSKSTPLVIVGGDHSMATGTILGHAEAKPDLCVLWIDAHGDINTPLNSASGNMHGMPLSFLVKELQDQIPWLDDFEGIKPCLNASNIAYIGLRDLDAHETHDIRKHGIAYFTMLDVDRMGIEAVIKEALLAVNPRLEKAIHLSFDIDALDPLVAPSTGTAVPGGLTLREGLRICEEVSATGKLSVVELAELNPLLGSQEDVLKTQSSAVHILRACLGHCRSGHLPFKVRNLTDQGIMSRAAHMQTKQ
Method: SmARG was dialyzed against 50 mM bicine (pH 8.5), 100 μM MnCl2, and 1.0 mM TCEP [5% (v/v) DMSO was included in the dialysis buffer when SmARG was titrated with ABH-PE and ABH-DP]. The inhibitor (ABH, 0.547 mM; NOHA, 1.097 mM; nor-NOHA, 0.443 mM; ABH-PE, 0.410 mM; ABH-DP, 0.436 mM) was dissolved in dialysis buffer.

Arginase [2] = biological target: T1, Arginase; assay: Archibald assay; settings: pH 8.5
Method: Briefly, 0.5-50 mM L-arginine (pH 8.5) was added to a solution of 50 mM 4-(2-hydroxyethyl)piperazine-1-propanesulfonic acid (EPPS) (pH 8.5) and 100 μM MnCl2. The reaction (200 μL) was initiated by adding 1 μM SmARG at 21°C and terminated after 1 min using 30 μL of a 3:1 (v/v) concentrated acid/dye solution.

N[C@](CCCCB(O)O)(CCN1CCCCC1)C(=O)O
Kd (Arginase [1]): 260 nM

N[C@@H](CCCCB(O)O)C(=O)O [2(S)-amino-6-boronohexanoic acid (ABH)]
Ki (Arginase [2]): 1800 nM | Kd (Arginase [1]): 1300 nM

N[C@@](CCCCB(O)O)(C(=O)O)C1CCN(Cc2ccc(Cl)c(Cl)c2)CC1 [(R)-2-amino-6-borono-2-[1-(3,4-dichlorobenzyl)piperidin-4-yl]hexanoic acid (ABH-DP)]
Kd (Arginase [1]): 540 nM
